Experimental findings from patent publication US20190336537A1, “GENERATING ATRIAL AND VENTRICULAR CARDIOMYOCYTE LINEAGES FROM HUMAN PLURIPOTENT STEM CELLS” (UNIVERSITY HEALTH NETWORK, priority 2016, published 2019) are described below.

For the assay, the system named is HES3 NKX2-5:GFP reporter hESC line derived cardiomyocytes. As to the kind of experiment: qRT-PCR analysis of atrial and ventricular gene expression in day 20 hPSC-derived cardiomyocytes. Format: cell-based, human. To be noted: receptor-specific agonist added in place of RA to day 3 cultures. (In general: In qPCR the cycle at which signal appears reflects the starting amount.)

For the compound `CCCCCCCCc1ccc(-c2ccc(C(=O)O)cc2)cc1` [AC55649], the “MYL2 expression in day 20 CTNT+ populations” value (from here on “MYL2 expression”) was “reduction”.

In the case of `CC1(C)CCC(C)(C)c2cc(C(=O)Nc3ccc(C(=O)O)cc3)ccc21` [AM580], the “MYL2 expression” value is given as “reduction”.

In the case of `O=C(O)c1ccc2cc(-c3ccc(O)c(C45CC6CC(CC(C6)C4)C5)c3)ccc2c1` [CD437], the “MYL2 expression” value was “reduction”.
